The values below come from EPA's ToxValDB 9.5 (doi:10.2903/j.efsa.2008.128r).

SMILES strings stand for the structures.

As a reminder, the NOAEL is the highest dose or exposure tested at which no adverse effect was seen.

The test system of one data set is Typhlodromus pyri. As to the kind of experiment: LR50; higher = less toxic. The following applies: not reported; mortality.
A further data set has as its system Canidae. The note with it: subchronic; duration: 90 days; oral; Dog Other; organ weight.
For another data set, the system named is Apis mellifera. The note with it: acute; duration: 48 hours; oral; unspecified; mortality.
The next data set relates to Anas platyrhynchos. The note with it: oral, mortality.
A further data set deals with Mus musculus. The note with it: acute; oral; mortality.
A further data set concerns Daphnia magna. The note with it: chronic/long-term; duration: 21 days.
The subject of a further data set is Colinus virginianus. The following applies: for LD50: acute, oral, mortality.

In the data set with Typhlodromus pyri, `CC(C)N1C(=O)N(c2ccccc2)CSC1=NC(C)(C)C` [Buprofezin] returned an LR50 above 3000 g/ha. Also, the LC50 with Tagia sp. (acute, duration: 14 days, mortality) is above 1000 mg/kg; with Oncorhynchus mykiss (acute, duration: 96 hours, mortality), above 0.33 mg/L; in the data set with Anas platyrhynchos (short-term, feed) it was above 1310 mg/kg-day. Further, the NOEC with Tagia sp. (chronic/long-term, duration: 56 days, reproduction) turned out to be 500 mg/kg; in the data set on Oncorhynchus mykiss (chronic/long-term, growth), 0.052 mg/L; in the data set on Daphnia magna it was 0.08 mg/L; with Colinus virginianus (developmental, development) it was 48 mg/kg-day; in the data set with Colinus virginianus (reproduction developmental, reproduction), 198 mg/kg-day. Moreover, the NOAEL in the data set with Canidae is 10 mg/kg-day; in the data set on Rattus norvegicus (chronic, duration: 2 years, oral, diet, M/F, organ weight), 0.9 mg/kg-day; in the data set with Rattus norvegicus (developmental, development) it was 50 mg/kg-day; in the data set on Rattus norvegicus (reproduction developmental, body weight), 66 mg/kg-day. The LD50 in the data set with Apis mellifera was above 164 µg/piece; with Anas platyrhynchos (acute, unspecified), above 2000 mg/kg-day; in the data set on Rattus norvegicus (acute, oral, mortality) it was above 2000 mg/kg-day; in the data set on Mus musculus, above 2000 mg/kg-day; in the data set with Colinus virginianus (diet) it was above 1310 mg/kg-day; in the data set on Colinus virginianus, above 2000 mg/kg-day.
